In paper PMC6812009, “Covalent Aurora A regulation by the metabolic integrator coenzyme A” (Redox Biology, 2019):

Tests used:
Experiment in all cases: Kinase profiling screen (radioactive filter-binding assay)
Type in all cases: biochemical
TAO1 = target: T1, TAO1 (Homo sapiens, UniProt Q7L7X3); details: 100 μM compound, 20 μM ATP; read-out: Kinase activity, % of activity in the absence of inhibitor
T1 sequence (Q7L7X3 1-1001): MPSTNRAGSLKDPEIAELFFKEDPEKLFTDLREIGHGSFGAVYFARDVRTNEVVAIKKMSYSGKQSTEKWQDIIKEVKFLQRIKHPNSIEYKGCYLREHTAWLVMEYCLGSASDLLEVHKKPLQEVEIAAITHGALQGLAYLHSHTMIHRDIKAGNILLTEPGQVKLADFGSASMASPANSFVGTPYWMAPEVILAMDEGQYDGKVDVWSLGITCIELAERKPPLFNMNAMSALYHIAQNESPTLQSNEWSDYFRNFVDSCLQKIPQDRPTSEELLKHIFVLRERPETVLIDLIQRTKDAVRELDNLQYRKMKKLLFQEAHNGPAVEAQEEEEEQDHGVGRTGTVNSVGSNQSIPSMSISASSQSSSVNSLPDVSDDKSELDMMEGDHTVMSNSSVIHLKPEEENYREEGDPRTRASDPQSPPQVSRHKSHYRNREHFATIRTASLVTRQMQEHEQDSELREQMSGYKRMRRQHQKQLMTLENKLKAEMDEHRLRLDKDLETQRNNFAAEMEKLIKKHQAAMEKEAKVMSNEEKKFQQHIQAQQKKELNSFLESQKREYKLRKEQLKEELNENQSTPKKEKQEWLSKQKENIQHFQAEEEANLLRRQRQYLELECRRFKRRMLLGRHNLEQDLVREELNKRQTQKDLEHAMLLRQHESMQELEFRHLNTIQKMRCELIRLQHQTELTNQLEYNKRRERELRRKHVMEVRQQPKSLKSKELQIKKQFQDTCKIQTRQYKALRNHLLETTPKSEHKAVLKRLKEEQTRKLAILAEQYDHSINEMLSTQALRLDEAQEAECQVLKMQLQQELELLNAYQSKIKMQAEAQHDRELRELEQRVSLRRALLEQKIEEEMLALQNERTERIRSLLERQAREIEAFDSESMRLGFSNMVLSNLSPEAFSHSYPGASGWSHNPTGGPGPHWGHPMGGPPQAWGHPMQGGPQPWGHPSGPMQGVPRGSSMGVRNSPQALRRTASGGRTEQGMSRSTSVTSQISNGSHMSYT
Protocol: (§1) Profiling of 117 protein kinases with CoA, dpCoA and ADP was carried out at the International Centre for Protein Kinase Profiling at the University of Dundee. Each compound was tested in vitro, in duplicate, at 100 μM final concentration using recombinant kinases, model substrates and optimal concentrations of ATP. Bacterially expressed full-length His-Aurora A was used to determine the IC50 value for CoA (in the presence or absence of DTT), dpCoA, ADP and desulfo-CoA. The assay was performed in the presence of 5 μM competing ATP. To examine whether the inhibitory effect of CoA on Aurora A is modulated by TPX2, IC50 values for CoA were also generated in the presence and absence of 1 μg TPX2 (residues 1–43) fragment.

EPH-B1 = target: T2, EPH-B1 (Homo sapiens, UniProt P54762); details: 100 μM compound, 20 μM ATP; read-out: Kinase activity, % of activity in the absence of inhibitor
T2 sequence (P54762 18-984): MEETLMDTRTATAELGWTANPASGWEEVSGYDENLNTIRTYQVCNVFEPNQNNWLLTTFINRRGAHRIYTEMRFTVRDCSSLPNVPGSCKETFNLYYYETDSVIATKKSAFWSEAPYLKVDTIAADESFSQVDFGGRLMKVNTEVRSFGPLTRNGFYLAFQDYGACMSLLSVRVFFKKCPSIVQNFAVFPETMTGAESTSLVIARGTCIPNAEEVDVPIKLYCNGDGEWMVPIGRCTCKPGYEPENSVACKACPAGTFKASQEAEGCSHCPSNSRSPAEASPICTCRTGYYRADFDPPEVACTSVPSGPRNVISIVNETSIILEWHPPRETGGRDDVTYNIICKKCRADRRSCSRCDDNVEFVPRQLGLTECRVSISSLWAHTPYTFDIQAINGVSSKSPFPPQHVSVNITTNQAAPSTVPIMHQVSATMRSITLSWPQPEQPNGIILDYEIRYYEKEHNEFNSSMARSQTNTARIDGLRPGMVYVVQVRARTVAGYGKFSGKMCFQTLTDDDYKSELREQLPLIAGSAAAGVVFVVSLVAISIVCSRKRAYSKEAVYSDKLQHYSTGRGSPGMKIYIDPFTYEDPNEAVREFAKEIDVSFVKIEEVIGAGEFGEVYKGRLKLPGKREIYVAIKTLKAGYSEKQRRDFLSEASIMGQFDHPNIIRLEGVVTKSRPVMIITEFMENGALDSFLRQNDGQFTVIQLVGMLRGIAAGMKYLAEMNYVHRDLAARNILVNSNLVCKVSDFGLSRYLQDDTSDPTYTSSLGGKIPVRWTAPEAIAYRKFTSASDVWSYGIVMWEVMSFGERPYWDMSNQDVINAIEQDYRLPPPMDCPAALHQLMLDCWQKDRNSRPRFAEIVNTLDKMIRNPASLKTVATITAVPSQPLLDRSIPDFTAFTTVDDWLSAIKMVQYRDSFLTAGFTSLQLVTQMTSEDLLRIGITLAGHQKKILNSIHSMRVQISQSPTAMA
Protocol: as §1

PKA = PKA (Homo sapiens, UniProt P17612); details: for activity at 100 µM: 100 μM compound, 20 μM ATP, read-out: Kinase activity, % of activity in the absence of inhibitor
Protocol: as §1

RIPK2 = RIPK2 (Homo sapiens, UniProt O43353); details: 100 μM compound, 20 μM ATP; read-out: Kinase activity, % of activity in the absence of inhibitor
Sequence of RIPK2 (O43353 whole entry): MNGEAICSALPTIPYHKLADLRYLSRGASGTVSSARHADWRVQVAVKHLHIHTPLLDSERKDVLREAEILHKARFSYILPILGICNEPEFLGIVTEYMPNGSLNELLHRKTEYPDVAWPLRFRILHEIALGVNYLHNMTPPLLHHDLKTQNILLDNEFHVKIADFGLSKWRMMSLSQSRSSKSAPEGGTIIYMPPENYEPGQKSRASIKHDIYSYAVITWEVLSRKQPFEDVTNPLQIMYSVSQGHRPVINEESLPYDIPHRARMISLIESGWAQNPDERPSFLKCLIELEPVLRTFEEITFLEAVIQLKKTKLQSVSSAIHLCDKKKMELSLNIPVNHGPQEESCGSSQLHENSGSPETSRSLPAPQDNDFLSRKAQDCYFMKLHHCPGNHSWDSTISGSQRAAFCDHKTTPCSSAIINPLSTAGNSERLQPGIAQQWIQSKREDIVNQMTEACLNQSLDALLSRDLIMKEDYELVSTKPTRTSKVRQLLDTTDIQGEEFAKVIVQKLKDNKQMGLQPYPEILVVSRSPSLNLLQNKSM
Protocol: as §1

SGK1 = target: T3, SGK1 (Homo sapiens, UniProt O00141); details: 100 μM compound, 20 μM ATP; read-out: Kinase activity, % of activity in the absence of inhibitor
T3 sequence (O00141 1-431): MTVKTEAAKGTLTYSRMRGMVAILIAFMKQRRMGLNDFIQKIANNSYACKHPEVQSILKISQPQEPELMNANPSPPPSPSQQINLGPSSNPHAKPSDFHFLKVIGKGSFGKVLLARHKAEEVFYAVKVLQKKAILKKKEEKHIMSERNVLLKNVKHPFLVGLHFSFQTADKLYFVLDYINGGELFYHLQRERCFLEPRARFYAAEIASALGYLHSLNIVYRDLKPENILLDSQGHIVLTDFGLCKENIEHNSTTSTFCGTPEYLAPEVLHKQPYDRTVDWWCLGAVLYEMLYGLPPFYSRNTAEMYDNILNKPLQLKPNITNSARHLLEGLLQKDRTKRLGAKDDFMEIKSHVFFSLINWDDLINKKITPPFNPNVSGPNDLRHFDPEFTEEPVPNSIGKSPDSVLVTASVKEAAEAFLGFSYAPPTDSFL
Protocol: as §1

ERK1 = ERK1 (Homo sapiens, UniProt P27361); details: 100 μM compound, 5 μM ATP; read-out: Kinase activity, % of activity in the absence of inhibitor
Sequence of ERK1 (P27361 whole entry): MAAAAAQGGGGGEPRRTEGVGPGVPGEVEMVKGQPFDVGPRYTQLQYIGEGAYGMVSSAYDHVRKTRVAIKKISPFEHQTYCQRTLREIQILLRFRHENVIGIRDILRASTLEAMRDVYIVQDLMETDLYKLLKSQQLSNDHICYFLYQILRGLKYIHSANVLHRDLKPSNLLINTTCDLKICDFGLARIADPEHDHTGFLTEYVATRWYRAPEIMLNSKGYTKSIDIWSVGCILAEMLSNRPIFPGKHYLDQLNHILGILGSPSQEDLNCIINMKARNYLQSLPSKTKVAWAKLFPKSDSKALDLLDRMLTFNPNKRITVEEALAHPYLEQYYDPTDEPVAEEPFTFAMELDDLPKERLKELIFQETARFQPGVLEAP
Protocol: as §1

MAPKAP-K3 = MAPKAP-K3 (Homo sapiens, UniProt Q16644); details: 100 μM compound, 20 μM ATP; read-out: Kinase activity, % of activity in the absence of inhibitor
Sequence of MAPKAP-K3 (Q16644 whole entry): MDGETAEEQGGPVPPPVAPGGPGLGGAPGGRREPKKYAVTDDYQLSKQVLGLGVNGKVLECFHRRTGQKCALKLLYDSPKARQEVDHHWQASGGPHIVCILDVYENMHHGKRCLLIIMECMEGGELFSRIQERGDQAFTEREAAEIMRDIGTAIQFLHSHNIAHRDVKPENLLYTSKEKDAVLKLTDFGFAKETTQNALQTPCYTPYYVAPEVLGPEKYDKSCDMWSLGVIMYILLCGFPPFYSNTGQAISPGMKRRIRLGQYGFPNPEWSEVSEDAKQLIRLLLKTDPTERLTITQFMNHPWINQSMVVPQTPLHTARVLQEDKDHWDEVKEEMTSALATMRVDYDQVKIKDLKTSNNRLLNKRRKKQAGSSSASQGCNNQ
Protocol: as §1

`CC(C)(COP(=O)(O)OP(=O)(O)OC[C@H]1O[C@@H](n2cnc3c(N)ncnc32)[C@H](O)[C@@H]1OP(=O)(O)O)[C@@H](O)C(=O)NCCC(=O)NCCS` [CoA, Coenzyme A] gave an activity at 100 µM (TAO1) of 113%, an activity at 100 µM (EPH-B1) of 117% and an activity at 100 µM (PKA) of 98.9%. The “PKA inhibition in vitro” value (PKA; kinase profiling, 100 μM) was “not detected”, the activity at 100 µM (RIPK2) was 131% and the activity at 100 µM (SGK1) was 103%. It also gave an activity at 100 µM (ERK1) of 118% and an activity at 100 µM (MAPKAP-K3) of 98.4%.

In the case of `CC(C)(COP(=O)(O)OP(=O)(O)OCC1OC(n2cnc3c(N)ncnc32)C(O)C1O)C(O)C(=O)NCCC(=O)NCCS` (stereo not shown) [dpCoA, dephospho-CoA], the activity at 100 µM (TAO1) is reported as 98.3%, the activity at 100 µM (EPH-B1) is reported as 80% and the activity at 100 µM (PKA) is reported as 81.3%. For the same compound, the activity at 100 µM (RIPK2) was 88.4%, the activity at 100 µM (SGK1) was 74.3% and the activity at 100 µM (ERK1) was 114%. It also gave an activity at 100 µM (MAPKAP-K3) of 63%.

`Nc1ncnc2c1ncn2C1OC(COP(=O)(O)OP(=O)(O)O)C(O)C1O` (stereo not shown) [ADP] gave an activity at 100 µM (TAO1) of 34%, an activity at 100 µM (EPH-B1) of 11.6% and an activity at 100 µM (PKA) of 27.8%. It also gave an activity at 100 µM (RIPK2) of 46%, an activity at 100 µM (SGK1) of 38.7% and an activity at 100 µM (ERK1) of 67.7%. The activity at 100 µM (MAPKAP-K3) was 25.7%.
